Source: paper PMC10959927, “Platinum iodido drugs show potential anti-tumor activity, affecting cancer cell metabolism and inducing ROS and senescence in gastrointestinal cancer cells” (Communications Biology, 2024)
Where “and” joins values, the source holds several entries; their conditions need not be identical. Identical values can stand only once.

Assays:
Assay type in all cases: cell-based, human
MKN45 cells [1] = test: Immunofluorescence of γ-H2AX foci; conditions: Fig. 3B; for foci/cell, number of cells in class: cell count
Protocol: (§1) Cells (7 × 10^4) were seeded on 20 mm coverslips. […] Coverslips were incubated for 1 h with the primary antibody (Cell Signaling: H2AX Ser139 (#2595) and 53BP1 (#4937)) at room temperature, followed by a 1 h incubation with the appropriate secondary antibody. DNA was stained with DAPI. Fluorescence microscopy was performed using a NIKON Eclipse 90i. The image analysis was performed using the software program Nikon NIS-Elements and Image J.

MKN45 cells [2] = test: RT-qPCR gene expression (CDKN1A, IL6, MMP1, MAP2K3, SOD1, SOD2, CAT, MKI67, TNFRSF10D)
Protocol: (§2) Total cellular RNA was extracted using Tri-Reagent (Life Technologies), following the manufacturer’s instructions. One μg of total RNA was primed with random primers and cDNA synthesized with an M-MLV reverse transcriptase following the manufacturer’s instructions (Promega). Target genes were amplified using a SYBR Green polymerase chain reaction assay, working with the specific primer sets listed in Table 4.
(§3) Thermal cycling of the qPCR reaction was initiated with a denaturation step at 95 °C for 10 min. The process consisted of 40 cycles (denaturation at 95 °C for 15 sec, annealing at 60 °C for 30 sec, and elongation at 75 °C for 30 sec). PCR amplifications were carried out in a StepOne Real‐time PCR System (Applied Biosystems, 4376357). Relative mRNA levels were calculated by the delta-Ct method (2-ΔΔCt), where each 1-Ct difference equals a two-fold change in transcript abundance, using GAPDH as an endogenous gene reference. ΔΔCT represents the difference between the mean ΔCT value of the cells tested and the mean ΔCT value of the calibrator, both calculated for the same PCR run.

PANC1 cells [3] = test: as above
Protocol: as §2, §3

AGS cells [4] = test: as above
Protocol: as §2, §3

PANC1 cells [5] = test: Immunofluorescence of γ-H2AX and 53BP1 foci; conditions: for foci/cell, share of cells in class (Suma 100) / foci/cell, number of cells in class: PANC1, Fig. 3B; for foci/cell, number of cells in class: cell count
Protocol: as §1

AGS cells [6] = test: Immunofluorescence of γ-H2AX and 53BP1 foci; conditions: for foci/cell, share of cells in class (Suma 100) / foci/cell, number of cells in class: Fig. 3B; for foci/cell, number of cells in class: cell count
Protocol: as §1

PANC1 cells [7] = test: Clonogenic (CFU) assay after 1, 3, 24 h pre-treatment
Protocol: For the clonogenic assay we used two different approaches. […] Then, cells were cultured in a 6-well plate at a very low concentration (2 × 10^3 cells per well) and incubated for 10 days. […] To evaluate the role of ROS in cell proliferation, we supplemented the growth medium with 0.5 mM NAC. After 10 days, the cells were fixed with 1% glutaraldehyde and stained with 0.1% crystal violet. The number of colonies was quantified directly and reflected as CFUs: Colony Forming Units.

AGS cells [8] = test: SA-β-Gal histochemical staining; conditions: Fig. S4A
Summary of the method: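 AGS, MKN45 or PANC1 cells (5×10^4) were seeded in 24-well plates overnight before treatment. For flow cytometry, cells were PFA-fixed and stained with CellEvent Senescence Green probe (1:500), read at ex 488/em 530/30 nm. For histochemistry, cells were treated 3 h, then kept 24 h in fresh medium before SA-β-Gal staining.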

[9] = MKN45, Fig. 3C, replicate values
[10] = PANC1, Fig. 3C, replicate values

CC(C)[NH][Pt@SP1]([I])([I])[NH]C(C)C [I6, cis-[PtI2(isopropylamine)2]]
foci/cell, share of cells in class (Suma 100) (MKN45 cells [1]; class 16-30 foci/cell): 16.6667
foci/cell, number of cells in class (MKN45 cells [1]; class 16-30 foci/cell): 7
foci/cell, share of cells in class (Suma 100) (MKN45 cells [1]; class 31-45 foci/cell): 14.2857
foci/cell, number of cells in class (MKN45 cells [1]; class 31-45 foci/cell): 6
foci/cell, share of cells in class (Suma 100) (MKN45 cells [1]; class 46-60 foci/cell): 23.8095
foci/cell, number of cells in class (MKN45 cells [1]; class 46-60 foci/cell): 10
foci/cell, share of cells in class (Suma 100) (MKN45 cells [1]; class <15 foci/cell): 11.9048
foci/cell, number of cells in class (MKN45 cells [1]; class <15 foci/cell): 5
foci/cell, share of cells in class (Suma 100) (MKN45 cells [1]; class >61 foci/cell): 33.3333
foci/cell, number of cells in class (MKN45 cells [1]; class >61 foci/cell): 14
MKI67 Fold change vs GAPDH (MKN45 cells [2]; MKN45, Fig. S4C): 0.2699 fold change and 0.2509 fold change and 0.2902 fold change
TNFRSF10D Fold change vs GAPDH (MKN45 cells [2]; MKN45, Fig. S4C): 0.3106 fold change and 0.2548 fold change and 0.3786 fold change
CAT (Fold change vs GAPDH) (MKN45 cells [2]; MKN45, mRNA vs Control = 1): 1.125 Fold change and 0.8671 Fold change and 1.459 Fold change
SOD1 (Fold change vs GAPDH) (MKN45 cells [2]; MKN45, mRNA vs Control = 1): 1.504 Fold change and 1.381 Fold change and 1.638 Fold change
SOD2 (Fold change vs GAPDH) (MKN45 cells [2]; MKN45, mRNA vs Control = 1): 2.631 Fold change and 2.276 Fold change and 3.26 Fold change
CDKN1A, Fold change vs GAPDH (MKN45 cells [2]; [9]): 1.257 fold change and 1.116 fold change and 1.417 fold change
IL-6, Fold change vs GAPDH (MKN45 cells [2]; [9]): 1.298 fold change and 0.9165 fold change and 1.735 fold change
MMP-1, Fold change vs GAPDH (MKN45 cells [2]; [9]): 2.795 fold change and 2.229 fold change and 3.504 fold change
Fold change MAP2K3 vs GAPDH (MKN45 cells [2]; MKN45, Fig. 4B, replicate values): 2.445 fold change and 2.003 fold change and 2.985 fold change
MKI67 Fold change vs GAPDH (PANC1 cells [3]; PANC1, Fig. S4C): 1.187 fold change and 1.0074 fold change and 1.3984 fold change
TNFRSF10D Fold change vs GAPDH (PANC1 cells [3]; PANC1, Fig. S4C): 1.308 fold change and 1.177 fold change and 1.453 fold change
CAT (Fold change vs GAPDH) (PANC1 cells [3]; PANC1, mRNA vs Control = 1): 1.283 Fold change and 1.157 Fold change and 1.422 Fold change
SOD1 (Fold change vs GAPDH) (PANC1 cells [3]; PANC1, mRNA vs Control = 1): 1.212 Fold change and 1.267 Fold change and 1.413 Fold change
SOD2 (Fold change vs GAPDH) (PANC1 cells [3]; PANC1, mRNA vs Control = 1): 0.7792 Fold change and 0.7372 Fold change and 0.8236 Fold change
CDKN1A, Fold change vs GAPDH (PANC1 cells [3]; [10]): 0.7609 fold change and 0.6464 fold change and 0.8957 fold change
IL-6, Fold change vs GAPDH (PANC1 cells [3]; [10]): 2.029 fold change and 0.6879 fold change and 5.985 fold change
MMP-1, Fold change vs GAPDH (PANC1 cells [3]; [10]): 1.768 fold change and 1.572 fold change and 2.113 fold change
Fold change MAP2K3 vs GAPDH (PANC1 cells [3]; PANC1, Fig. 4B, replicate values): 1.382 fold change and 1.186 fold change and 1.609 fold change
CDKN1A, Fold change vs GAPDH (AGS cells [4]; Fig. 3C, replicate values): 7.239 fold change and 5.782 fold change and 9.064 fold change
IL-6, Fold change vs GAPDH (AGS cells [4]; Fig. 3C, replicate values): 1.072 fold change and 0.8542 fold change and 0.2227 fold change
MMP-1, Fold change vs GAPDH (AGS cells [4]; Fig. 3C, replicate values): 528.599 fold change and 466.082 fold change and 599.501 fold change
Fold change MAP2K3 vs GAPDH (AGS cells [4]; Fig. 4B, replicate values): 14.3277 fold change and 13.4406 fold change and 15.2735 fold change
MKI67 Fold change vs GAPDH (AGS cells [4]; Fig. S4C): 0.8471 fold change and 0.6697 fold change and 1.072 fold change
TNFRSF10D Fold change vs GAPDH (AGS cells [4]; Fig. S4C): 16.1948 fold change and 12.3693 fold change and 21.2034 fold change
CAT (Fold change vs GAPDH) (AGS cells [4]; mRNA vs Control = 1): 0.4383 Fold change and 0.3857 Fold change and 0.4982 Fold change
SOD1 (Fold change vs GAPDH) (AGS cells [4]; mRNA vs Control = 1): 1.81 Fold change and 1.501 Fold change and 2.182 Fold change
SOD2 (Fold change vs GAPDH) (AGS cells [4]; mRNA vs Control = 1): 0.6611 Fold change and 0.5938 Fold change and 0.736 Fold change
foci/cell: number of cells with 16-30 foci (PANC1 cells [5]; PANC1, Fig. S4B, cell counts): 43
foci/cell: number of cells with 31-45 foci (PANC1 cells [5]; PANC1, Fig. S4B, cell counts): 7
foci/cell: number of cells with 46-60 foci (PANC1 cells [5]; PANC1, Fig. S4B, cell counts): 2
foci/cell: number of cells with <15 foci (PANC1 cells [5]; PANC1, Fig. S4B, cell counts): 39
foci/cell: number of cells with >61 foci (PANC1 cells [5]; PANC1, Fig. S4B, cell counts): 5
foci/cell: share of cells with 16-30 foci (Suma 100) (PANC1 cells [5]; PANC1, Fig. S4B, share of N): 44.7917
foci/cell: share of cells with 31-45 foci (Suma 100) (PANC1 cells [5]; PANC1, Fig. S4B, share of N): 7.292
foci/cell: share of cells with 46-60 foci (Suma 100) (PANC1 cells [5]; PANC1, Fig. S4B, share of N): 2.083
foci/cell: share of cells with <15 foci (Suma 100) (PANC1 cells [5]; PANC1, Fig. S4B, share of N): 40.625
foci/cell: share of cells with >61 foci (Suma 100) (PANC1 cells [5]; PANC1, Fig. S4B, share of N): 5.208
foci/cell, share of cells in class (Suma 100) (PANC1 cells [5]; class 16-30 foci/cell): 41.9753
foci/cell, number of cells in class (PANC1 cells [5]; class 16-30 foci/cell): 34
foci/cell, share of cells in class (Suma 100) (PANC1 cells [5]; class 31-45 foci/cell): 18.5185
foci/cell, number of cells in class (PANC1 cells [5]; class 31-45 foci/cell): 15
foci/cell, share of cells in class (Suma 100) (PANC1 cells [5]; class 46-60 foci/cell): 6.173
foci/cell, number of cells in class (PANC1 cells [5]; class 46-60 foci/cell): 5
foci/cell, share of cells in class (Suma 100) (PANC1 cells [5]; class <15 foci/cell): 22.2222
foci/cell, number of cells in class (PANC1 cells [5]; class <15 foci/cell): 18
foci/cell, share of cells in class (Suma 100) (PANC1 cells [5]; class >61 foci/cell): 11.1111
foci/cell, number of cells in class (PANC1 cells [5]; class >61 foci/cell): 9
foci/cell, share of cells in class (Suma 100) (AGS cells [6]; class 16-30 foci/cell): 23.3831
foci/cell, number of cells in class (AGS cells [6]; class 16-30 foci/cell): 47
foci/cell, share of cells in class (Suma 100) (AGS cells [6]; class 31-45 foci/cell): 26.3682
foci/cell, number of cells in class (AGS cells [6]; class 31-45 foci/cell): 53
foci/cell, share of cells in class (Suma 100) (AGS cells [6]; class 46-60 foci/cell): 13.9303
foci/cell, number of cells in class (AGS cells [6]; class 46-60 foci/cell): 28
foci/cell, share of cells in class (Suma 100) (AGS cells [6]; class <15 foci/cell): 29.3532
foci/cell, number of cells in class (AGS cells [6]; class <15 foci/cell): 59
foci/cell, share of cells in class (Suma 100) (AGS cells [6]; class >61 foci/cell): 6.965
foci/cell, number of cells in class (AGS cells [6]; class >61 foci/cell): 14
foci/cell: number of cells with 16-30 foci (AGS cells [6]; Fig. S4B, cell counts): 54
foci/cell: number of cells with 31-45 foci (AGS cells [6]; Fig. S4B, cell counts): 20
foci/cell: number of cells with 46-60 foci (AGS cells [6]; Fig. S4B, cell counts): 3
foci/cell: number of cells with <15 foci (AGS cells [6]; Fig. S4B, cell counts): 39
foci/cell: number of cells with >61 foci (AGS cells [6]; Fig. S4B, cell counts): 4
foci/cell: share of cells with 16-30 foci (Suma 100) (AGS cells [6]; Fig. S4B, share of N): 45
foci/cell: share of cells with 31-45 foci (Suma 100) (AGS cells [6]; Fig. S4B, share of N): 16.6667
foci/cell: share of cells with 46-60 foci (Suma 100) (AGS cells [6]; Fig. S4B, share of N): 2.5
foci/cell: share of cells with <15 foci (Suma 100) (AGS cells [6]; Fig. S4B, share of N): 32.5
foci/cell: share of cells with >61 foci (Suma 100) (AGS cells [6]; Fig. S4B, share of N): 3.333
CFUs (PANC1 cells [7]; PANC1, 1 h pre-treatment at IC50, colonies after 10 days): 336 and 264 and 360
CFUs (PANC1 cells [7]; PANC1, 3 h pre-treatment at IC50, colonies after 10 days): 292 and 280 and 324
Fold change % Senescence (AGS cells [8]): 49.02% and 67.7% and 53.18%
